Experimental data: patent publication US8143227B2, “Azithromycin for treatment of skin disorders” (priority 2008, dated 2012)

Key:
moderate to severe acne = test: Efficacy against acne (lesion counts), 40/80/120 mg per day; format: in vivo, human
Protocol: The subjects of Example 1 were evaluated for efficacy of each dosage (40 mg, 80 mg, or 120 mg per day) in treating moderate to severe acne following treatment for 6 weeks. Before starting the treatment protocol, the number of facial non-inflammatory lesions (open and closed comedones), inflammatory lesions (papules, pustules, and nodules), and nodules were counted. The numbers of these lesions were counted again at day 21 of treatment and at day 42. The % decrease from Day 0 was calculated as the mean of the differences for each of the parameters (non-inflammatory lesions, inflammatory lesion and nodules) for each individual subject on Day 21 and Day 42. The results, including average lesion counts and efficacy assessment by percent decrease in lesion counts, are shown for the 40 mg, 80 mg, and 120 mg group, respectively, in Tables 4, 5, and 6.

[1] = test system: moderate to severe facial acne vulgaris; test: Additional low dosage regimens, lesion counts; format: in vivo, human
Protocol: Five male subjects and five female subjects with moderate to severe facial acne vulgaris, having a mean age of 19.6 years, were treated either with 25 mg of oral azithromycin daily or with 80 mg of oral azithromycin every other day. Each of the ten subjects had acne nodules. The male subjects received the 25 mg per day regimen and the female subjects received the 80 mg every other day regimen. Treatment was continued for a duration of 6 weeks. The numbers of facial inflammatory lesions: papules, pustules, and nodules, and non-inflammatory lesions: open and closed comedones, were counted at the beginning of treatment and again after 3 weeks of treatment and after 6 weeks of treatment. Additionally, nodules were counted independently at each of these visits. Additionally, during the treatment study, each subject reported the occurrence of any adverse effects. The results of this study for the 25 mg/day regimen are shown in Table 7 and for the 80 mg every other day regiment in Table 8. In these tables, the numbers represent the mean number of lesions in the four subjects of each group. The % decrease from Day 0 was calculated as the mean of the differences for each of the parameters (inflammatory lesions, non-inflammatory lesion and nodules) for each individual subject on Day 21 and Day 42.

[2] = 120 mg/day for 6 weeks, Day 0 (before treatment)
[3] = 25 mg/day for 6 weeks, male subjects, Day 0 (beginning of treatment)
[4] = 25 mg/day for 6 weeks, male subjects, Day 21
[5] = 25 mg/day for 6 weeks, male subjects, Day 42
[6] = 80 mg every other day for 6 weeks, female subjects, Day 0 (beginning of treatment)
[7] = 80 mg every other day for 6 weeks, female subjects, Day 21
[8] = 80 mg every other day for 6 weeks, female subjects, Day 42

## CC[C@H]1OC(=O)[C@H](C)[C@@H](O[C@H]2C[C@@](C)(OC)[C@@H](O)[C@H](C)O2)[C@H](C)[C@@H](O[C@@H]2O[C@H](C)C[C@H](N(C)C)[C@H]2O)[C@](C)(O)C[C@@H](C)CN(C)[C@H](C)[C@@H](O)[C@]1(C)O [Azithromycin, 9-deoxo-9a-aza-9a-methyl-9a-homoerythromycin A]
Moderate to severe acne; 80 mg/day for 6 weeks, Day 21
  Nodules (average count): 1.5
  Non-inflammatory lesions % Decrease from Day 0: 34.7%
  Non-inflammatory lesions (average count): 24.9
Moderate to severe acne; 80 mg/day for 6 weeks, Day 42
  Inflammatory lesions % Decrease from Day 0: 53.7%
  Inflammatory lesions (average count): 17.0
  Nodules % Decrease from Day 0: 74.2%
  Nodules (average count): 1.3
  Non-inflammatory lesions % Decrease from Day 0: 24.7%
  Non-inflammatory lesions (average count): 29.3
Moderate to severe acne; [2]
  Inflammatory lesions (average count): 31.6
  Nodules (average count): 4.7
  Non-inflammatory lesions (average count): 37.7
Moderate to severe acne; 120 mg/day for 6 weeks, Day 21
  Inflammatory lesions % Decrease from Day 0: 51.9%
  Inflammatory lesions (average count): 15.6
  Nodules % Decrease from Day 0: 78.6%
  Nodules (average count): 1.0
  Non-inflammatory lesions % Decrease from Day 0: 28.1%
  Non-inflammatory lesions (average count): 27.8
Moderate to severe acne; 120 mg/day for 6 weeks, Day 42
  Inflammatory lesions % Decrease from Day 0: 52.9%
  Inflammatory lesions (average count): 14.8
  Nodules % Decrease from Day 0: 73.7%
  Nodules (average count): 1.1
  Non-inflammatory lesions % Decrease from Day 0: 38.9%
  Non-inflammatory lesions (average count): 23.2
Moderate to severe acne; any of 40, 80, or 120 mg per day, at 21 days and at 42 days
  number of inflammatory acne lesions: marked decrease
Moderate to severe acne; any of 40, 80, or 120 mg, at both 21 and 42 days
  number of facial nodules: marked decrease
Moderate to severe acne; daily treatment at each dosage level tested, 40, 80, or 120 mg
  response of non-inflammatory acne lesions: responded favorably
Moderate to severe acne; examination at 21 days after initiation of treatment, daily administration
  resolution of existing nodules: Complete resolution of existing nodules in several subjects
[1]; 25 mg per day, daily
  effectiveness in treating skin disorders such as acne in adults: effective
[1]; [3]
  Inflammatory lesions (mean number): 37.4
  Nodules (mean number): 3.0
  Non-inflammatory lesions (mean number): 12.6
[1]; [4]
  Inflammatory lesions % Decrease from Day 0: 38.0%
  Inflammatory lesions (mean number): 22.8
  Nodules % Decrease from Day 0: 45.0%
  Nodules (mean number): 1.6
  Non-inflammatory lesions % Decrease from Day 0: 18.8%
  Non-inflammatory lesions (mean number): 10.2
[1]; [5]
  Inflammatory lesions % Decrease from Day 0: 41.0%
  Inflammatory lesions (mean number): 22.0
  Nodules % Decrease from Day 0: 58.3%
  Nodules (mean number): 1.2
  Non-inflammatory lesions % Decrease from Day 0: 34.3%
  Non-inflammatory lesions (mean number): 8.4
[1]; 80 mg every other day
  effectiveness in treating skin disorders such as acne: effective
[1]; [6]
  Inflammatory lesions (mean number): 24.4
  Nodules (mean number): 3.8
  Non-inflammatory lesions (mean number): 48.6
[1]; [7]
  Inflammatory lesions % Decrease from Day 0: 34.0%
  Inflammatory lesions (mean number): 16.0
  Nodules % Decrease from Day 0: 76.0%
  Nodules (mean number): 1.0
  Non-inflammatory lesions % Decrease from Day 0: 18.5%
  Non-inflammatory lesions (mean number): 41.2
[1]; [8]
  Inflammatory lesions % Decrease from Day 0: 15.5%
  Inflammatory lesions (mean number): 20.4
  Nodules % Decrease from Day 0: 58.0%
  Nodules (mean number): 1.8
  Non-inflammatory lesions % Decrease from Day 0: 30.1%
  Non-inflammatory lesions (mean number): 31.6
